#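 Protocol summary: plate cells (96-well), add compound at 5 concentrations, incubate 48 h, interpolate endpoints linearly. The concentration for 50% growth inhibition is given as GI50.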 The source made the active and inactive calls. Rule as the data show it: active = GI50 up to about 1.1 µM and inactive = higher.
# Assays:
# Test in all cases: DTP human tumour cell line panel, 48 h
# SNB-75 = tested on: SNB-75
# SK-MEL-2 = tested on: SK-MEL-2
# A549 = tested on: A549
# SNB-19 = tested on: SNB-19
# SK-MEL-5 = tested on: SK-MEL-5
# DLD-1 = tested on: DLD-1
# NCI-H23 = tested on: NCI-H23
# SF-268 = tested on: SF-268
# EKVX = tested on: EKVX
# OVCAR-8 = tested on: OVCAR-8
# OVCAR-4 = tested on: OVCAR-4
# SNB-78 = tested on: SNB-78
# HOP-18 = tested on: HOP-18
# RXF 631 = tested on: RXF 631
# M19-MEL = tested on: M19-MEL
# HT-29 = tested on: HT-29
# OVCAR-3 = tested on: OVCAR-3
# Malme-3M = tested on: Malme-3M
# HOP-92 = tested on: HOP-92
# HL-60 = tested on: HL-60
# SF-539 = tested on: SF-539
# UACC-62 = tested on: UACC-62
# KM12 = tested on: KM12
# HOP-62 = tested on: HOP-62
# NCI-H460 = tested on: NCI-H460
# DMS-273 = tested on: DMS-273
# U-251 = tested on: U-251
# SF-295 = tested on: SF-295
# OVCAR-5 = tested on: OVCAR-5
# A498 = tested on: A498
# IGROV-1 = tested on: IGROV-1
# ACHN = tested on: ACHN
# HCC 2998 = tested on: HCC 2998
# SN12C = tested on: SN12C
# HCT-116 = tested on: HCT-116
# M14 = tested on: M14
# SK-OV-3 = tested on: SK-OV-3
# UO-31 = tested on: UO-31
# SW-620 = tested on: SW-620
# KM-20L2 = tested on: KM-20L2
# LOX IMVI = tested on: LOX IMVI
# TK-10 = tested on: TK-10
# SK-MEL-28 = tested on: SK-MEL-28
# COLO 205 = tested on: COLO 205
# XF498 = tested on: XF498
# K562 = tested on: K562
# DMS-114 = tested on: DMS-114
# HCT-15 = tested on: HCT-15
# 786-0 = tested on: 786-0
# NCI-H522 = tested on: NCI-H522
# SR = tested on: SR
# NCI-H226 = tested on: NCI-H226
# LXFL 529 = tested on: LXFL 529
# RXF 393 = tested on: RXF 393
# UACC-257 = tested on: UACC-257
# CCRF-CEM = tested on: CCRF-CEM
# CAKI-1 = tested on: CAKI-1
# RPMI-8226 = tested on: RPMI-8226
# MOLT-4 = tested on: MOLT-4
smiles,measurement,setting,value
COC(=O)CCC(NC(=S)N/N=C/c1cccs1)C(=O)OC (stereo not drawn),GI50,SNB-75,> 100 µM (inactive)
same,GI50,SK-MEL-2,> 100 µM (inactive)
same,GI50,A549,> 100 µM (inactive)
same,GI50,SNB-19,> 100 µM (inactive)
same,GI50,SK-MEL-5,> 100 µM (inactive)
same,GI50,DLD-1,> 100 µM (inactive)
same,GI50,NCI-H23,> 100 µM (inactive)
same,GI50,SF-268,> 100 µM (inactive)
same,GI50,EKVX,> 100 µM (inactive)
same,GI50,OVCAR-8,> 100 µM (inactive)
same,GI50,OVCAR-4,> 100 µM (inactive)
same,GI50,SNB-78,> 100 µM (inactive)
same,GI50,HOP-18,> 100 µM (inactive)
same,GI50,RXF 631,> 100 µM (inactive)
same,GI50,M19-MEL,> 100 µM (inactive)
same,GI50,HT-29,> 100 µM (inactive)
same,GI50,OVCAR-3,> 100 µM (inactive)
same,GI50,Malme-3M,> 100 µM (inactive)
same,GI50,HOP-92,> 100 µM (inactive)
same,GI50,HL-60,> 100 µM (inactive)
same,GI50,SF-539,> 100 µM (inactive)
same,GI50,UACC-62,> 100 µM (inactive)
same,GI50,KM12,> 100 µM (inactive)
same,GI50,HOP-62,> 100 µM (inactive)
same,GI50,NCI-H460,> 100 µM (inactive)
same,GI50,DMS-273,> 100 µM (inactive)
same,GI50,U-251,> 100 µM (inactive)
same,GI50,SF-295,> 100 µM (inactive)
same,GI50,OVCAR-5,> 100 µM (inactive)
same,GI50,A498,> 100 µM (inactive)
same,GI50,IGROV-1,> 100 µM (inactive)
same,GI50,ACHN,> 100 µM (inactive)
same,GI50,HCC 2998,> 100 µM (inactive)
same,GI50,SN12C,> 100 µM (inactive)
same,GI50,HCT-116,> 100 µM (inactive)
same,GI50,M14,> 100 µM (inactive)
same,GI50,SK-OV-3,> 100 µM (inactive)
same,GI50,UO-31,> 100 µM (inactive)
same,GI50,SW-620,> 100 µM (inactive)
same,GI50,KM-20L2,> 100 µM (inactive)
same,GI50,LOX IMVI,> 100 µM (inactive)
same,GI50,TK-10,> 100 µM (inactive)
same,GI50,SK-MEL-28,> 100 µM (inactive)
same,GI50,COLO 205,> 100 µM (inactive)
same,GI50,XF498,> 100 µM (inactive)
same,GI50,K562,> 100 µM (inactive)
same,GI50,DMS-114,> 100 µM (inactive)
same,GI50,HCT-15,> 100 µM
same,GI50,786-0,> 100 µM (inactive)
same,GI50,NCI-H522,> 100 µM (inactive)
same,GI50,SR,> 100 µM (inactive)
same,GI50,NCI-H226,> 100 µM (inactive)
same,GI50,LXFL 529,> 100 µM (inactive)
same,GI50,RXF 393,> 100 µM (inactive)
same,GI50,UACC-257,> 100 µM (inactive)
CCC(CC)n1cc(C(=O)NC(=O)NCCCCCOC(=O)CCCCCCCCCCC(=O)OCCCCCNC(=O)NC(=O)c2cn(C(CC)CC)c(=O)[nH]c2=O)c(=O)[nH]c1=O,GI50,SNB-75,22.8 µM (inactive)
same,GI50,A549,> 100 µM (inactive)
same,GI50,SNB-19,27.7 µM (inactive)
same,GI50,SK-MEL-5,> 100 µM (inactive)
same,GI50,DLD-1,> 100 µM (inactive)
same,GI50,NCI-H23,> 100 µM (inactive)
same,GI50,SF-268,> 100 µM (inactive)
same,GI50,EKVX,> 100 µM (inactive)
same,GI50,OVCAR-8,64.3 µM (inactive)
same,GI50,OVCAR-4,> 100 µM (inactive)
same,GI50,CCRF-CEM,> 100 µM (inactive)
same,GI50,CAKI-1,> 100 µM (inactive)
same,GI50,SNB-78,> 100 µM (inactive)
same,GI50,HOP-18,> 100 µM (inactive)
same,GI50,RXF 631,> 100 µM (inactive)
same,GI50,M19-MEL,> 100 µM (inactive)
same,GI50,HT-29,> 100 µM (inactive)
same,GI50,OVCAR-3,> 100 µM (inactive)
same,GI50,Malme-3M,> 100 µM (inactive)
same,GI50,RPMI-8226,> 100 µM (inactive)
same,GI50,HOP-92,> 100 µM (inactive)
same,GI50,HL-60,> 100 µM (inactive)
same,GI50,SF-539,47.2 µM (inactive)
same,GI50,UACC-62,> 100 µM (inactive)
same,GI50,KM12,> 100 µM (inactive)
same,GI50,HOP-62,> 100 µM (inactive)
same,GI50,NCI-H460,> 100 µM (inactive)
same,GI50,DMS-273,> 100 µM (inactive)
same,GI50,U-251,88.3 µM (inactive)
same,GI50,SF-295,> 100 µM (inactive)
same,GI50,OVCAR-5,> 100 µM (inactive)
same,GI50,A498,> 100 µM (inactive)
same,GI50,MOLT-4,> 100 µM (inactive)
same,GI50,IGROV-1,> 100 µM (inactive)
same,GI50,ACHN,> 100 µM (inactive)
same,GI50,HCC 2998,> 100 µM (inactive)
same,GI50,SN12C,> 100 µM (inactive)
same,GI50,HCT-116,> 100 µM (inactive)
same,GI50,M14,> 100 µM (inactive)
same,GI50,SK-OV-3,> 100 µM (inactive)
same,GI50,UO-31,> 100 µM (inactive)
same,GI50,SW-620,> 100 µM (inactive)
same,GI50,KM-20L2,> 100 µM (inactive)
same,GI50,LOX IMVI,> 100 µM (inactive)
same,GI50,TK-10,> 100 µM (inactive)
same,GI50,SK-MEL-28,> 100 µM (inactive)
same,GI50,COLO 205,> 100 µM (inactive)
same,GI50,XF498,> 100 µM (inactive)
same,GI50,K562,> 100 µM (inactive)
same,GI50,DMS-114,> 100 µM (inactive)
same,GI50,HCT-15,> 100 µM
same,GI50,786-0,45.8 µM (inactive)
same,GI50,NCI-H522,> 100 µM (inactive)
same,GI50,SR,> 100 µM (inactive)
same,GI50,NCI-H226,> 100 µM (inactive)
same,GI50,LXFL 529,62.8 µM (inactive)
same,GI50,RXF 393,29.1 µM (inactive)
same,GI50,UACC-257,> 100 µM (inactive)
